# Patent publication US11220494B2, “Cyclin dependent kinase inhibitors” (Pfizer Inc., priority 2018, dated 2022)
# Key:
# CDK4/Cyclin D1 = CDK4/Cyclin D1 (Homo sapiens (Human), UniProt P11802); assay: CDK4/Cyclin D1 mobility shift assay; type: biochemical; details: activated CDK4/Cyclin D1, 3.5 mM ATP, fit to Morrison equation; read-out: CDK4D1 Ki
# Procedure: Biological Assays and Data CDK4/Cyclin D1 Mobility Shift Assay
# (§1) The purpose CDK4/Cyclin D1 assay is to evaluate the inhibition (% inhibition, Kiapp and Ki values) in the presence of small molecule inhibitors by using a fluorescence based microfluidic mobility shift assay. […] The mobility shift assay electrophoretically separates the fluorescently labeled peptides (substrate and phosphorylated product) following the kinase reaction. Both substrate and product are measured and the ratio of these values is used to generate % Conversion of substrate to product by the LabChip EZ Reader.
# The reaction was stopped after 195 minutes by the addition of 50 μL of 30 mM EDTA. Ki determinations were made from a plot of the fractional velocity as a function of inhibitor concentration fit to the Morrison equation with the enzyme concentration as a variable.
# For CDK4 and CDK6 mobility shift assays, see also Morrison, J. F. (1969) Kinetics of the reversible inhibition of enzyme-catalysed reactions by tight-binding inhibitors, Biochimica et biophysica acta 185, 269-286; and Murphy, D. J. (2004) Determination of accurate KI values for tight-binding enzyme inhibitors: an in silico study of experimental error and assay design, Analytical biochemistry 327, 61-67.
# CDK6/Cyclin D3 = CDK6/Cyclin D3 (Homo sapiens (Human), UniProt Q00534); assay: CDK6/Cyclin D3 mobility shift assay; type: biochemical; details: activated CDK6/Cyclin D3, 3.5 mM ATP, fit to Morrison equation; read-out: CDK6_D3 Ki
# Procedure: CDK6/Cyclin D3 Mobility Shift Assay
# as §1, with “of the CDK6/Cyclin D3” for “CDK4/Cyclin D1”, “conversion” for “Conversion”
# The reaction was stopped after 95 minutes by the addition of 50 μL of 30 mM EDTA. Ki determinations were made from a plot of the fractional velocity as a function of inhibitor concentration fit to the Morrison equation with the enzyme concentration as a variable.
# CDK6 = CDK6 (Homo sapiens (Human), UniProt Q00534); assay: Phospho-Serine 795 Rb ELISA assay in MV4-11 cells; type: cell-based; details: treated overnight, phospho-Ser795 Rb, read-out: CDK6 pRB S795 ELISA MV4-11 cells IC50
# Procedure: (§2) JEKO-1 or MV4-11 cells were seeded at 15,000 or 20,000 cells per well, respectively, in 100 μL growth media and allowed to incubate at 37° C. with 5% CO2 overnight. The following day, compounds were serially diluted from a 10 mM top dose for an 11-point 3-fold dilution curve in DMSO. Compounds were intermediately diluted 1:200 into growth media prior to diluting 1:5 on cells for final concentration 10 μM to 0.1 nM in 0.1% DMSO on cells. JEKO-1 and MV4-11 cells were treated were treated overnight, at 37° C. with 5% CO2. Cells were lysed in 100 μL/well CST lysis buffer on ice and transferred to pre-coated and blocked anti-phospho-Ser795 Rb ELISA plates for overnight incubation at 4° C. Plates were washed to remove residual, unbound cellular proteins and total Rb detection antibody added for 90 minutes at 37° C. Following wash to remove unbound total Rb antibody, the HRP tagged antibody was allowed to bind for 30 minutes at 37° C. Following wash to remove unbound HRP antibody, Glo Substrate Reagent was added and incubated protected from light for 5 to 10 minutes. Plates were read in luminescence mode and IC50 values calculated.
# CDK4 = CDK4 (Homo sapiens (Human), UniProt P11802); assay: Phospho-Serine 795 Rb ELISA assay in JEKO-1 cells; type: cell-based; details: treated overnight, phospho-Ser795 Rb, read-out: CDK4 pRB S795 ELISA JEKO-1 cells IC50
# Procedure: Phospho-Serine 795 Rb ELISA Assays
# as §2
# Sequence of CDK6/Cyclin D3 (Q00534 whole entry): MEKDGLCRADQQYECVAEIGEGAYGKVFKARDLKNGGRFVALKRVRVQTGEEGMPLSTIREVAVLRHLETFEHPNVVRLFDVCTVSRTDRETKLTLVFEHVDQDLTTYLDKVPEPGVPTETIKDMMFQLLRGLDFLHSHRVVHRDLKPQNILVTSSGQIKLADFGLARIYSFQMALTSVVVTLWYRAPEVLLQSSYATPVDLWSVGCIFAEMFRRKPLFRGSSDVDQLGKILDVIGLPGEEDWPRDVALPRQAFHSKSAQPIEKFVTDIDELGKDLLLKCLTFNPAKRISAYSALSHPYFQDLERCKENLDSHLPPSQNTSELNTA
# Sequence of CDK6/Cyclin D3 (P30281 whole entry partner): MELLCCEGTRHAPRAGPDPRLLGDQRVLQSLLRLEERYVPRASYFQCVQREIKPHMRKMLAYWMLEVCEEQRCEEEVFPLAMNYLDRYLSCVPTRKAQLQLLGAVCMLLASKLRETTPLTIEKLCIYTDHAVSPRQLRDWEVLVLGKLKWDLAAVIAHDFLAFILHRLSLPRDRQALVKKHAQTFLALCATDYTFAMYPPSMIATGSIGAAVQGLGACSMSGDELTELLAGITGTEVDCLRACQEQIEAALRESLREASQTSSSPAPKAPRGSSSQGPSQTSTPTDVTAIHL
# Sequence of CDK6 (Q00534 whole entry): as the sequence (Q00534 whole entry) above
# Sequence of CDK6 (P30281 whole entry partner): as the sequence (P30281 whole entry partner) above
# Sequence of CDK4/Cyclin D1 (P11802 whole entry): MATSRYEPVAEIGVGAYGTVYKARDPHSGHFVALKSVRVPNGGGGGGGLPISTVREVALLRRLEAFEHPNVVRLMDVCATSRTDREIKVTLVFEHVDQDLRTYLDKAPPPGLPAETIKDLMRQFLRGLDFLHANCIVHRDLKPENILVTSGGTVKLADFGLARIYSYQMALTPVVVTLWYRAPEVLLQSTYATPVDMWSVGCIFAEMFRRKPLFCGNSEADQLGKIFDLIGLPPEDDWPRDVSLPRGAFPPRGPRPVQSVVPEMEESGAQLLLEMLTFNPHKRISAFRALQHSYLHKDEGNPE
# Sequence of CDK4/Cyclin D1 (P24385 whole entry partner): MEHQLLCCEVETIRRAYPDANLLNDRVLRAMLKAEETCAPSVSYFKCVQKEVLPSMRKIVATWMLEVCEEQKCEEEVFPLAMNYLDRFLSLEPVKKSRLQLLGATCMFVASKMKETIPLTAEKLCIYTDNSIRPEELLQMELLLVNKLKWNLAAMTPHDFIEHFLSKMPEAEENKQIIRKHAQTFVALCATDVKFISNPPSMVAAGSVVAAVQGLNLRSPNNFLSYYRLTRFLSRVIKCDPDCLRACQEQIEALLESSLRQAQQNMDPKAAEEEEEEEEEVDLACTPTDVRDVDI
# Sequence of CDK4 (P11802 2-303): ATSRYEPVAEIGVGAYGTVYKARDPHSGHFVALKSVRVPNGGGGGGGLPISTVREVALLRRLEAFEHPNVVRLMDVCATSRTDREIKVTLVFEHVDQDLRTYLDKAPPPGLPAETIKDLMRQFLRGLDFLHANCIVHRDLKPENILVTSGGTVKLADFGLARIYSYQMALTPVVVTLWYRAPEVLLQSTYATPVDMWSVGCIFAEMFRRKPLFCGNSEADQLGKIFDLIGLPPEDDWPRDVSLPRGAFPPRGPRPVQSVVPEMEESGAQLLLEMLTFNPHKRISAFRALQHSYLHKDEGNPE
# Sequence of CDK4 (P24385 whole entry partner): as the sequence (P24385 whole entry partner) above
SMILES,Ki (CDK4/Cyclin D1),Ki (CDK6/Cyclin D3),IC50 (CDK6),IC50 (CDK4)
CS(=O)(=O)N1CC[C@@H](Nc2ncc(Cl)c(-c3cc(F)c4ncn(C5CCOC5)c4c3)n2)[C@H](O)C1 (some centres unmarked) [Example A14],0.5 nM,4.6 nM,–,–
CC(C)n1cnc2c(Cl)cc(-c3nc(N[C@@H]4CCN(S(C)(=O)=O)C[C@H]4O)ncc3Cl)cc21 [Example A16],0.2 nM,2.7 nM,98.1 nM,25.7 nM
CC(C)n1c(C(C)(C)O)nc2c(F)cc(-c3nc(N[C@H]4CCOC[C@H]4O)ncc3Cl)cc21 [Example A35],1.5 nM,58.9 nM,967 nM,124 nM

# The next compounds have a lower Ki (CDK6/Cyclin D3) than those just listed; values first:
Ki (CDK4/Cyclin D1),Ki (CDK6/Cyclin D3),IC50 (CDK6),IC50 (CDK4),SMILES
0.3 nM,2.4 nM,–,–,CS(=O)(=O)N1CC[C@@H](Nc2ncc(Cl)c(-c3cc(F)c4ncn(C5CC5)c4c3)n2)[C@H](O)C1 [Example A15]
0.2 nM,2.3 nM,77.2 nM,25 nM,CC1(C)COCc2nc3c(F)cc(-c4nc(N[C@@H]5CCN(S(C)(=O)=O)C[C@H]5O)ncc4F)cc3n21 [Example A18]
–,1.3 nM,30.6 nM,13.3 nM,CC(C)c1c2cc(-c3nc(N[C@@H]4CCN(S(C)(=O)=O)C[C@H]4O)ncc3Cl)cc(F)c2nn1C [Example A25]
0.1 nM,0.4 nM,13.4 nM,9.9 nM,CCC1COCc2nc3c(F)cc(-c4nc(N[C@@H]5CCN(S(C)(=O)=O)C[C@H]5O)ncc4F)cc3n21 (some centres unmarked) [Example A17]
